Assay results taken from PubChem BioAssay AID651569 (Sanford-Burnham Center for Chemical Genomics, 2012).
Active and inactive are the calls of the source. How the calls were made is not given here.

These molecules were tested on luminescent cytotoxicity (cell viability) counter-screen (assay: cytotoxicity of Gli-SUFU antagonist hits, dose response, cytotoxicity control for Gli-SUFU antagonist project, cell-based, luminescence, uHTS hits (AID 651569);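 further: compound exposure lasted overnight before the viability readout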).

SMILES	IC50
COc1ccc(CCNc2ncnc3c2oc2ccccc23)cc1OC	> 20 µM (inactive)
CC(C)Cc1ccc(C(C)C(=O)Nc2cccnc2)cc1 (configuration not stated)	> 20 µM (inactive)
CCOP(=O)(CCP(=O)(OCC)OCC)OCC.C[CH2][Sn]([Cl])([Cl])[CH2]C	12.6 µM
O=C(c1ccc(Cl)cc1)N1CCN(c2ccnc3cc(Cl)ccc23)CC1	> 20 µM (inactive)
COc1ccc(OC)c(Cc2cnc3nc(N)nc(N)c3c2C)c1	> 20 µM (inactive)
COc1cc2c(c(OC)c1OC)-c1ccc(N(C)CC(OC)OC)c(=O)cc1[C@@H](NC(C)=O)CC2	10.6 µM
COc1ccc(NC(=S)N2CCC(Cc3ccccc3)CC2)cc1	> 20 µM (inactive)
CCCCc1ccc(NC(=O)C(=O)NCCN2CCN(Cc3ccc([N+](=O)[O-])cc3)CC2)cc1	> 20 µM (inactive)
Cc1sc2ncnc(NCC3COc4ccccc4O3)c2c1C (configuration not stated)	> 20 µM (inactive)
C[C@@H]1COC(=O)[C@@H](NC(=O)OCC2c3ccccc3-c3ccccc32)C/C=C\C[C@@H](CC(=O)N(CCO)Cc2ccccc2)C(=O)N1	> 20 µM (inactive)
CN(Cc1ccc(OCC(O)CN2CCCCC2)cc1)Cc1ccnc2ccccc12 (configuration not stated)	> 20 µM (inactive)
O=C(N[C@@H]1C/C=C\C[C@H](CC(=O)N(CCO)Cc2ccccc2)C(=O)N[C@@H](Cc2c[nH]c3ccccc23)COC1=O)OCC1c2ccccc2-c2ccccc21	> 20 µM (inactive)
COc1ccc(N2CCN(c3ncnc4c3[nH]c3ccccc34)CC2)cc1	> 20 µM (inactive)
COc1ccc(CNc2cc(C)nc3ncnn23)c(OC)c1	> 20 µM (inactive)
CC1CCN(c2c(NCc3ccc(C(=O)N4c5ccccc5CC4C)cc3)c(=O)c2=O)CC1 (configuration not stated)	> 20 µM (inactive)
COc1ccc2c(c1)c(C)cc[n+]2Cc1ccccc1	> 20 µM (inactive)
CCN1CCCC1CNc1ncnc2c1[nH]c1ccc(Cl)cc12 (configuration not stated)	> 20 µM (inactive)
COc1ccc(C2=[N+](C)CCn3cccc32)c(OC)c1	> 20 µM (inactive)
COc1ccccc1NS(=O)(=O)c1cccc(C(=O)NC2CCN(Cc3ccccc3)CC2)c1	> 20 µM (inactive)
COCCNC(=O)CSCc1nc(-c2ccc(SC)cc2)oc1C	> 20 µM (inactive)
Fc1ccc(-n2nnnc2-c2cnc(-c3cccs3)nc2C(F)(F)F)cc1	17 µM
CC(C)n1c(-c2ccco2)csc1=Nc1cccnc1	> 20 µM (inactive)
CC1C(OC(=O)CCC(=O)NC(C)(C)CO)O[C@H]2OC3(C)CC[C@H]4[C@H](C)CCC1C24OO3 (some centres not stated)	> 20 µM (inactive)

SMILES	IC50
Cc1c(CCOC(=O)C23CC4CC(CC(C)(C4)C2)C3)sc[n+]1Cc1ccccc1	> 20 µM (inactive)
CCCCCCC[N+](CC)(CC)CCCCc1ccc(Cl)cc1	> 20 µM (inactive)
COc1ccc(NS(=O)(=O)c2ccc(NC(C)=O)cc2)cc1OC	> 20 µM (inactive)
CCCN1CCC(=O)N([C@H](CSc2ccc(OC)cc2)Cc2ccccc2)CC1	> 20 µM (inactive)
CCOc1ccc(OCc2ccc(C(=O)NN=Cc3ccc[nH]3)cc2)cc1	19.3 µM
CC(Sc1nc2ccccc2c(=O)n1C)C(=O)N(C)C1CCCCC1 (configuration not stated)	> 20 µM (inactive)
Cc1ccc(C)c(N2CC(O)(c3cccs3)[N+]3=C2CCCC3)c1 (configuration not stated)	> 20 µM (inactive)
COc1ccc(-c2nn(-c3ccccc3)cc2/C=N/NC(=O)c2ccc(Br)o2)cc1	> 20 µM (inactive)
CN1/C(=C\C=Nc2ccccc2)C(C)(C)c2ccccc21	> 20 µM (inactive)
COc1ccccc1CCNC(=O)c1cc(-c2ccncc2)nc2ccc(Br)cc12	> 20 µM (inactive)
c1ccc(-c2cn(-c3ccccc3)c3[n+]2CCS3)cc1	> 20 µM (inactive)
CCN1C(=O)CCN(C2CCCC2)c2nc(Nc3ccc(C(=O)NC4CCN(C)CC4)cc3OC)ncc21	> 20 µM (inactive)
C#CC[N+](C)(C)CCCCCCCCCCCC	> 20 µM (inactive)
CCOC(=O)c1c(NC(=O)COc2ncnc3ccccc23)sc(C(C)=O)c1C	> 20 µM (inactive)
COc1ccc(NS(=O)(=O)c2ccc(N3CCCCC3)c(N)c2)cc1	> 20 µM (inactive)
CC(C)(C)C1CCC(OC(=O)C[N+]2(C)CCCCC2)CC1 (configuration not stated)	> 20 µM (inactive)
Cc1ccc2c(c1)c(C)cc[n+]2Cc1ccccc1	> 20 µM (inactive)
CC1CCN(Cc2c(C(=O)N/N=C/c3ccccc3O)nnn2-c2nonc2N)CC1	> 20 µM (inactive)
CCCCCCn1c(=O)c(C(=O)Nc2cnccn2)c(O)c2ccccc21	> 20 µM (inactive)
O=C(C[n+]1cc(-c2ccccc2)n2c1CCCCC2)c1ccc(Cl)cc1	> 20 µM (inactive)
O=C(N/N=C/c1cc2ccccc2nc1Cl)[C@H]1C[C@@H]1c1ccccc1	> 20 µM (inactive)
Brc1ccc(-c2csc(N3CCCCCC3)n2)cc1	> 20 µM (inactive)
Cc1c(C(C)C)c(=O)n(-c2ccc(S(=O)(=O)NC3CCCCC3)cc2)n1C	9.32 µM

SMILES	IC50
CC(C)(C)c1ccc(C(=O)NC(=S)Nc2ccc(N3CCOCC3)cc2)cc1	> 20 µM (inactive)
COc1ccc(NS(=O)(=O)c2cccc(NC(=O)c3ccc(S(=O)(=O)N4CCCCCC4)cc3)c2)cc1	> 20 µM (inactive)
Cc1ccc(OCCOC(=O)c2cc(S(=O)(=O)N3CCCCC3)ccc2N2CCOCC2)cc1	> 20 µM (inactive)
O=[N+]([O-])c1ccc(N2CCN(C(=S)NCc3ccc(Cl)cc3)CC2)cc1	> 20 µM (inactive)
Cc1cc(=O)[nH]c(SCC(=O)/C=C2\N(C)c3ccccc3C2(C)C)n1	> 20 µM (inactive)
COc1cc(C(=O)NC2CCN(C)CC2)ccc1Nc1ncc2c(n1)N(Cc1ccccc1)CCC(=O)N2C	> 20 µM (inactive)
O=C(c1cc2sccc2n1Cc1ccc(F)cc1)N1CCN(c2nc3ccccc3s2)CC1	> 20 µM (inactive)
CCOc1ccc(-c2cc(C)[n+](CCO)c(-c3ccc(OCC)cc3)c2)cc1	> 20 µM (inactive)
Cc1ccc(NC(=O)/C=C/c2ccco2)cc1S(=O)(=O)N1CCCCCC1	6.1 µM
CCC(C(=O)NCCC(C)C)n1ccc2cc(S(=O)(=O)N3CCCCC3)ccc21 (configuration not stated)	> 20 µM (inactive)
CCOC(CN=c1nc(N(C)C)ss1)OCC	18.6 µM
O=C(c1cnc(N2CCN(c3ccccn3)CC2)c2ccccc12)N1CCN(c2cccc(Cl)c2)CC1	> 20 µM (inactive)
Cc1ccc(O)c(NC(=O)COc2cc(C)ccc2C)c1	> 20 µM (inactive)
CCCCN(C(C)=O)c1ccc2c(c1)C1CC2CCN1C(=O)OCc1ccccc1 (configuration not stated)	8.16 µM
CCC(C)CCN1C(N(C)C)=NC[C@@H]1CC(C)C (some centres not stated)	> 20 µM (inactive)
Cc1nn(C)c(C(=O)NCc2ccc(Cl)cc2)c1Cl	> 20 µM (inactive)
N=c1c2c(n(Cc3ccc(F)cc3)c3c1CCC3)CCCC2	> 20 µM (inactive)
CC1CCCCC1NS(=O)(=O)c1ccc(S(=O)(=O)NCc2ccncc2)cc1 (configuration not stated)	> 20 µM (inactive)
COc1ccc(-c2noc(CCCCC(=O)N3CCN(c4cc(C)ccc4C)CC3)n2)cc1	> 20 µM (inactive)
CCCCCCCN1C2=NCCCN2c2ccccc21	> 20 µM (inactive)
COc1ccc(-n2cc(-c3ccc(OC(F)F)cc3)[n+]3c2CCCCC3)cc1	> 20 µM (inactive)
CCC(CC)CN1C(N(C)C)=NC[C@@H]1CC(C)C	> 20 µM (inactive)
CCCC(C)C(=O)Nc1nc(C)c(-c2csc(Nc3ccc(Cl)cc3)n2)s1 (configuration not stated)	> 20 µM (inactive)

SMILES	IC50
CCC(C)[C@H]1CN=C(N)N1CCc1cccc2ccccc12 (some centres not stated)	> 20 µM (inactive)
COc1ccc(CNc2ncnc3c2[nH]c2ccccc23)cc1	> 20 µM (inactive)
CCOc1ccc(NC(=S)NNc2ccnc3cc(Cl)ccc23)cc1	> 20 µM (inactive)
Cc1cc(C)c(C(N)=O)c(SCC(=O)c2cc(C)n(-c3cc(C)on3)c2C)n1	> 20 µM (inactive)
COC(=O)C1=C(c2cc3ccccc3o2)C[C@@H]2CC[C@H]1N2C(=O)N1CCC(C)CC1	> 20 µM (inactive)
O=C(C[C@@H]1C/C=C\C[C@H](NC(=O)OCC2c3ccccc3-c3ccccc32)C(=O)OC[C@H]2CCCN2C1=O)N[C@H](CO)Cc1ccccc1	> 20 µM (inactive)
CCc1ccc(CN(C)C(=O)c2cc(COc3cccc4cnccc34)on2)cc1	> 20 µM (inactive)
O=C(C[C@H]1C/C=C\C[C@H](NC(=O)OCC2c3ccccc3-c3ccccc32)C(=O)OC[C@@H]2CCCN2C1=O)N[C@H](CO)Cc1ccccc1	> 20 µM (inactive)
O=c1c2ccccc2sc2c(CO)ccc(NCCN3CCCCC3)c12	19.1 µM
CCCCCCCOc1ccc(OC(=O)c2ccncc2)cc1	> 20 µM (inactive)
C[n+]1c2n(c3ccccc31)N=C(c1ccc(-c3ccccc3)cc1)CS2	> 20 µM (inactive)
O=C(c1ccc(C(F)(F)F)cc1)C1CCCN(Cc2ccncc2)C1 (configuration not stated)	18.2 µM
Cc1sc2ncnc(NCC(C)(C)N3CCOCC3)c2c1C	> 20 µM (inactive)
COc1ccc(NS(=O)(=O)c2ccc(N3CCOCC3)c(N)c2)cc1	> 20 µM (inactive)
COc1ccc(CC(=O)Nc2cccc(S(=O)(=O)N3CCCCCC3)c2)cc1OC	> 20 µM (inactive)
CC(=O)c1ccc(-n2cc(-c3ccc(C(C)(C)C)cc3)[n+]3c2SCCC3)cc1	> 20 µM (inactive)
CC(=O)Nc1cccc(OCC(=O)/C=C2\N(C)c3ccccc3C2(C)C)c1	> 20 µM (inactive)
Clc1ccc(-c2cn(-c3ccc(Cl)cc3)c3[n+]2CCCCC3)cc1	> 20 µM (inactive)
CC(=O)/C(=N\Nc1ccc(Cl)cc1Cl)Sc1cccc2cccnc12	> 20 µM (inactive)
Nc1nc2ccccc2n1/N=C/c1ccc([N+](=O)[O-])s1	> 20 µM (inactive)
C[C@@H]1COC(=O)[C@H](NC(=O)OCC2c3ccccc3-c3ccccc32)C/C=C\C[C@@H](CC(=O)N[C@@H](CO)Cc2ccccc2)C(=O)N1	> 20 µM (inactive)
CC[C@@H](O)C[C@H]1CCC[C@@]2(C[C@@H]3OC(=O)/C=C/[C@@](C)(O)[C@@H](O)[C@H](C)[C@@H](O)[C@H](OC4CCC(N(C)C)C(C)O4)[C@@H](O)[C@](C)(O)CCCCC/C=C/[C@@H]4CC(C)(C)O[C@@]4(O)C[C@H](O2)[C@H]3C)O1 (some centres not stated)	> 20 µM (inactive)
Cc1nc2cc(N3CCN(C)CC3)c(NC(=O)Cc3ccccc3)cc2c(=O)n1Cc1ccccc1	> 20 µM (inactive)
